Values of other authors as cited in PMC11843658 (Journal of Enzyme Inhibition and Medicinal Chemistry, 2025).

Target: LSD1 (Homo sapiens, UniProt O60341)
Design: purchased Cayman Chemical (Ann Arbor, MI)
Conditions: cited from earlier work

CC/C(=C\c1ccccc1)[C@@H]1C[C@H]1NC1CC2(C1)CN(CCO)C2 [Compound 5]
mode of LSD1 inhibition: covalently inhibits LSD1
